In US6476060B2, “4,5-dihydro-1H-pyrazole derivatives having CB1-antagonistic activity” (Solvay Pharmaceuticals, B.V., priority 2000, dated 2002) one finds melting point data, which are given here for three compounds.

SMILES strings stand for the structures.

The melting point is the temperature of the solid-liquid transition. In turn, `O=S(=O)(CCN1CC(c2ccccc2)C(c2ccc(Cl)cc2)=N1)c1cccc(C(F)(F)F)c1` (stereo not drawn) [VIII, 3-(4-Chlorophenyl)-4,5-dihydro-4-phenyl-1-[2-((3-(trifluoromethyl)phenyl)-sulfonyl)ethyl]-1H-pyrazole] gave a melting point of 118 to 119 °C. In the case of `CNC(=NC(=O)c1cccc(C(F)(F)F)c1)N1CC(c2ccccc2)C(c2ccc(Cl)cc2)=N1` (stereo not drawn) [V, N-Methyl-N′-(3-(trifluoromethyl)benzoyl)-3-(4-chlorophenyl)-4,5-dihydro-4-phenyl-1H-pyrazole-1-carboxamidine] it was 180 to 182 °C; in that of `O=S(=O)(NCCN1CC(c2ccccc2)C(c2ccc(Cl)cc2)=N1)c1cccc(C(F)(F)F)c1` (stereo not drawn) [IX, N-[2-(3-(4-Chlorophenyl)-4,5-dihydro-4-phenyl-1H-pyrazol-1-yl)ethyl]-3-(trifluoromethyl)benzenesulfonamide], 94 to 96 °C.
